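The compound was tested at five concentrations on cells cultured in 96-well plates, with a 48-hour exposure period. GI50 = concentration required for 50% inhibition of growth. The concentration for full growth arrest is given as TGI.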
Columns and labels:
Experiment in all cases: NCI tumour cell line growth inhibition, 48 h
SK-OV-3 ovarian = system: SK-OV-3 ovarian
NCI/ADR-RES ovarian = system: NCI/ADR-RES ovarian
SNB-75 CNS = system: SNB-75 CNS
HT29 colon = system: HT29 colon
UO-31 renal = system: UO-31 renal
OVCAR-4 ovarian = system: OVCAR-4 ovarian
COLO 205 colon = system: COLO 205 colon
SW-620 colon = system: SW-620 colon
NCI-H522 lung = system: NCI-H522 lung
SK-MEL-5 melanoma = system: SK-MEL-5 melanoma
HOP-92 NSCLC = system: HOP-92 NSCLC
SK-MEL-28 melanoma = system: SK-MEL-28 melanoma
UACC-62 melanoma = system: UACC-62 melanoma
T-47D breast = system: T-47D breast
MOLT-4 leukemia = system: MOLT-4 leukemia
MDA-MB-435 = system: MDA-MB-435
MALME-3M melanoma = system: MALME-3M melanoma
OVCAR-5 ovarian = system: OVCAR-5 ovarian
PC-3 prostate = system: PC-3 prostate
NCI-H226 lung = system: NCI-H226 lung
SF-539 CNS = system: SF-539 CNS
UACC-257 melanoma = system: UACC-257 melanoma
SF-268 CNS = system: SF-268 CNS
SK-MEL-2 melanoma = system: SK-MEL-2 melanoma
HCT-116 colon = system: HCT-116 colon
M14 melanoma = system: M14 melanoma
OVCAR-8 ovarian = system: OVCAR-8 ovarian
SN12C renal = system: SN12C renal
NCI-H460 lung = system: NCI-H460 lung
ACHN renal = system: ACHN renal
RPMI-8226 leukemia = system: RPMI-8226 leukemia
SR leukemia = system: SR leukemia
786-0 renal = system: 786-0 renal
SF-295 CNS = system: SF-295 CNS
BT-549 breast = system: BT-549 breast
KM12 colon = system: KM12 colon
CCRF-CEM leukemia = system: CCRF-CEM leukemia
HCC-2998 colon = system: HCC-2998 colon
IGROV1 ovarian = system: IGROV1 ovarian
EKVX NSCLC = system: EKVX NSCLC
DU-145 prostate = system: DU-145 prostate
A549 NSCLC = system: A549 NSCLC
MCF7 breast = system: MCF7 breast
CAKI-1 renal = system: CAKI-1 renal
OVCAR-3 ovarian = system: OVCAR-3 ovarian
K-562 leukemia = system: K-562 leukemia
HS 578T breast = system: HS 578T breast
HOP-62 NSCLC = system: HOP-62 NSCLC
A498 renal = system: A498 renal
TK-10 renal = system: TK-10 renal
LOX IMVI melanoma = system: LOX IMVI melanoma
MDA-MB-231 breast = system: MDA-MB-231 breast
U251 CNS = system: U251 CNS
SNB-19 CNS = system: SNB-19 CNS
HL-60(TB) leukemia = system: HL-60(TB) leukemia
HCT-15 colon = system: HCT-15 colon
NCI-H23 lung = system: NCI-H23 lung
RXF 393 renal = system: RXF 393 renal
MDA-MB-468 breast = system: MDA-MB-468 breast

Cc1ccc(C(=O)C[n+]2cccc3c4ccccc4ccc32)cc1
GI50 (SK-OV-3 ovarian): 22.1 µM | TGI (SK-OV-3 ovarian): > 100 µM | GI50 (NCI/ADR-RES ovarian): > 100 µM | TGI (NCI/ADR-RES ovarian): > 100 µM | GI50 (SNB-75 CNS): 8.73 µM | TGI (SNB-75 CNS): 61.9 µM | GI50 (HT29 colon): 5.6 µM | TGI (HT29 colon): 48.4 µM | GI50 (UO-31 renal): 19.9 µM | TGI (UO-31 renal): > 100 µM | GI50 (OVCAR-4 ovarian): 4.43 µM | TGI (OVCAR-4 ovarian): > 100 µM | GI50 (COLO 205 colon): 9.03 µM | TGI (COLO 205 colon): 25.5 µM | GI50 (SW-620 colon): 13.4 µM | TGI (SW-620 colon): 87.1 µM | GI50 (NCI-H522 lung): 6.66 µM | TGI (NCI-H522 lung): 24.6 µM | GI50 (SK-MEL-5 melanoma): 3.73 µM | TGI (SK-MEL-5 melanoma): 14.8 µM | GI50 (HOP-92 NSCLC): 6.11 µM | TGI (HOP-92 NSCLC): 40.8 µM | GI50 (SK-MEL-28 melanoma): 14.8 µM | TGI (SK-MEL-28 melanoma): 32.6 µM | GI50 (UACC-62 melanoma): 12.6 µM | TGI (UACC-62 melanoma): 26.5 µM | GI50 (T-47D breast): 6.57 µM | TGI (T-47D breast): 46.2 µM | GI50 (MOLT-4 leukemia): 13.2 µM | TGI (MOLT-4 leukemia): 83.9 µM | GI50 (MDA-MB-435): 14.2 µM | TGI (MDA-MB-435): 29.8 µM | GI50 (MALME-3M melanoma): 13.9 µM | TGI (MALME-3M melanoma): 27.4 µM | GI50 (OVCAR-5 ovarian): 20.4 µM | TGI (OVCAR-5 ovarian): > 100 µM | GI50 (PC-3 prostate): 5.53 µM | TGI (PC-3 prostate): 59.4 µM | GI50 (NCI-H226 lung): 5.18 µM | TGI (NCI-H226 lung): 42.9 µM | GI50 (SF-539 CNS): 16.9 µM | TGI (SF-539 CNS): 58.7 µM | GI50 (UACC-257 melanoma): 10.3 µM | TGI (UACC-257 melanoma): 25.7 µM | GI50 (SF-268 CNS): 17.2 µM | TGI (SF-268 CNS): > 100 µM | GI50 (SK-MEL-2 melanoma): 14.5 µM | TGI (SK-MEL-2 melanoma): 52.5 µM | GI50 (HCT-116 colon): 6.64 µM | TGI (HCT-116 colon): 28.6 µM | GI50 (M14 melanoma): 11.1 µM | TGI (M14 melanoma): 29.2 µM | GI50 (OVCAR-8 ovarian): 6.97 µM | TGI (OVCAR-8 ovarian): > 100 µM | GI50 (SN12C renal): 12.5 µM | TGI (SN12C renal): > 100 µM | GI50 (NCI-H460 lung): 10.5 µM | TGI (NCI-H460 lung): 25.8 µM | GI50 (ACHN renal): 15.9 µM | TGI (ACHN renal): > 100 µM | GI50 (RPMI-8226 leukemia): 3.87 µM | TGI (RPMI-8226 leukemia): 21.9 µM | GI50 (SR leukemia): 29.7 µM | TGI (SR leukemia): > 100 µM | GI50 (786-0 renal): 18.6 µM | TGI (786-0 renal): 48.3 µM | GI50 (SF-295 CNS): 7.05 µM | TGI (SF-295 CNS): 29.1 µM | GI50 (BT-549 breast): 5.68 µM | TGI (BT-549 breast): 18.9 µM | GI50 (KM12 colon): 16 µM | TGI (KM12 colon): 65 µM | GI50 (CCRF-CEM leukemia): 13.1 µM | TGI (CCRF-CEM leukemia): 70 µM | GI50 (HCC-2998 colon): 13.6 µM | TGI (HCC-2998 colon): 28.3 µM | GI50 (IGROV1 ovarian): 19.1 µM | TGI (IGROV1 ovarian): 82.5 µM | GI50 (EKVX NSCLC): 7.26 µM | TGI (EKVX NSCLC): > 100 µM | GI50 (DU-145 prostate): 18.5 µM | TGI (DU-145 prostate): > 100 µM | GI50 (A549 NSCLC): 11 µM | TGI (A549 NSCLC): > 100 µM | GI50 (MCF7 breast): 5.44 µM | TGI (MCF7 breast): 24.4 µM | GI50 (CAKI-1 renal): 15.6 µM | TGI (CAKI-1 renal): 71.1 µM | GI50 (OVCAR-3 ovarian): 6.1 µM | TGI (OVCAR-3 ovarian): 52.3 µM | GI50 (K-562 leukemia): 2.45 µM | TGI (K-562 leukemia): > 100 µM | GI50 (HS 578T breast): 15.8 µM | TGI (HS 578T breast): 83.4 µM | GI50 (HOP-62 NSCLC): 11.8 µM | TGI (HOP-62 NSCLC): > 100 µM | GI50 (A498 renal): 24.1 µM | TGI (A498 renal): > 100 µM | GI50 (TK-10 renal): 26.4 µM | TGI (TK-10 renal): > 100 µM | GI50 (LOX IMVI melanoma): 11.2 µM | TGI (LOX IMVI melanoma): 24.1 µM | GI50 (MDA-MB-231 breast): 14.4 µM | TGI (MDA-MB-231 breast): 40.8 µM | GI50 (U251 CNS): 9.32 µM | TGI (U251 CNS): 34.8 µM | GI50 (SNB-19 CNS): 18.5 µM | TGI (SNB-19 CNS): > 100 µM | GI50 (HL-60(TB) leukemia): 3.75 µM | TGI (HL-60(TB) leukemia): 21.1 µM | GI50 (HCT-15 colon): 28.1 µM | TGI (HCT-15 colon): > 100 µM | GI50 (NCI-H23 lung): 10.6 µM | TGI (NCI-H23 lung): 49 µM | GI50 (RXF 393 renal): 3.82 µM | TGI (RXF 393 renal): 21.6 µM | GI50 (MDA-MB-468 breast): 1.61 µM | TGI (MDA-MB-468 breast): 7.72 µM

— PubChem BioAssay (NCI)
